Source: ChEMBL document CHEMBL1133420, “Parallel synthesis of a series of subtype-selective NMDA receptor antagonists” (Bioorg Med Chem Lett, 2000)

Legend:
Type in all cases: functional, cell-based, Oocyte
[1] = molecular target: Glutamate receptor ionotropic, NMDA 2C (Homo sapiens, UniProt Q05586+Q14957); test: Antagonistic activity against NR1A/2C receptor in frog oocytes
[2] = molecular target: Glutamate receptor ionotropic, NMDA 2A (Homo sapiens, UniProt Q05586+Q12879); test: Antagonistic activity against NR1A/2A receptors in frog oocytes
[3] = molecular target: Glutamate receptor ionotropic, NMDA 2B (Homo sapiens, UniProt Q05586+Q13224); test: Antagonistic activity against NR1A/2B receptor in frog oocytes
Sequence of Glutamate receptor ionotropic, NMDA 2B (Q13224 whole entry, one chain of several): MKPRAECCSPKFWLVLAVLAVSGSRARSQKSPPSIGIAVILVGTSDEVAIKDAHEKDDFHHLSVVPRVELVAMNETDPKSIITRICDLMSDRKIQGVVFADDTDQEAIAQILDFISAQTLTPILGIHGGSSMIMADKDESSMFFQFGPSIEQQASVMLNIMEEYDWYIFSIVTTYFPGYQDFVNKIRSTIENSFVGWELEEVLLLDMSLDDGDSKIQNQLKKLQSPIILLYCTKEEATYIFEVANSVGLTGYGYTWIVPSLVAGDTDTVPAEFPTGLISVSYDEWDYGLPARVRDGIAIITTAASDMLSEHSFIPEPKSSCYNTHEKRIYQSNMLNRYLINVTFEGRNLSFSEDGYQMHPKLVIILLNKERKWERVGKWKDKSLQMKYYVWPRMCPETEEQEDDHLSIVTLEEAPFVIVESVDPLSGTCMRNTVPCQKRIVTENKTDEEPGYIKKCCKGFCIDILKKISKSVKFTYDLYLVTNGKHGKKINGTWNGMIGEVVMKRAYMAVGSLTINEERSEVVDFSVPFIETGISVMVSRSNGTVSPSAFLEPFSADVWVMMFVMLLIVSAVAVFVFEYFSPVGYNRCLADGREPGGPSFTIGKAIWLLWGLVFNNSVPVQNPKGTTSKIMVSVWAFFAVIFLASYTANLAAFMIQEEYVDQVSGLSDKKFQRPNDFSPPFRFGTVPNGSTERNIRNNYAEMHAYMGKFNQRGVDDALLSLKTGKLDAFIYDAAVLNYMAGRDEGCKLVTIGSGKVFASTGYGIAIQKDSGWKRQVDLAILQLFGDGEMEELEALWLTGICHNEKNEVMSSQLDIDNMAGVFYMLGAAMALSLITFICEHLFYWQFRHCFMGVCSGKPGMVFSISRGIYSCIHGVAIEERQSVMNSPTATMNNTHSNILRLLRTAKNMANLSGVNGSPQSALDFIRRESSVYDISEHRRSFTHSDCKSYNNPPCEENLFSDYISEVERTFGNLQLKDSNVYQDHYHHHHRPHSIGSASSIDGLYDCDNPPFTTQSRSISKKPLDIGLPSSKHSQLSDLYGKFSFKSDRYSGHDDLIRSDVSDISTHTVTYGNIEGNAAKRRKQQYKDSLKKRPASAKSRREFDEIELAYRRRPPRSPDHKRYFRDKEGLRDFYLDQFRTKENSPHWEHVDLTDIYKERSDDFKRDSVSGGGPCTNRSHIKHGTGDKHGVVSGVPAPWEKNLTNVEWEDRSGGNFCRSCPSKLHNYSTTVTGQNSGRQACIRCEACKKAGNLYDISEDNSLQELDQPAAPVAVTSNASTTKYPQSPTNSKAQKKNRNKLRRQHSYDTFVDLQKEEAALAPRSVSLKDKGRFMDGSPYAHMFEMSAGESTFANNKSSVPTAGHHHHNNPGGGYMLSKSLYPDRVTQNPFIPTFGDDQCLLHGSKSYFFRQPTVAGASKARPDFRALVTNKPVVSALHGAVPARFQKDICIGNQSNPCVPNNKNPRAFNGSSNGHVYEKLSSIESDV

Sequence of Glutamate receptor ionotropic, NMDA 2C (Q14957 whole entry, one chain of several): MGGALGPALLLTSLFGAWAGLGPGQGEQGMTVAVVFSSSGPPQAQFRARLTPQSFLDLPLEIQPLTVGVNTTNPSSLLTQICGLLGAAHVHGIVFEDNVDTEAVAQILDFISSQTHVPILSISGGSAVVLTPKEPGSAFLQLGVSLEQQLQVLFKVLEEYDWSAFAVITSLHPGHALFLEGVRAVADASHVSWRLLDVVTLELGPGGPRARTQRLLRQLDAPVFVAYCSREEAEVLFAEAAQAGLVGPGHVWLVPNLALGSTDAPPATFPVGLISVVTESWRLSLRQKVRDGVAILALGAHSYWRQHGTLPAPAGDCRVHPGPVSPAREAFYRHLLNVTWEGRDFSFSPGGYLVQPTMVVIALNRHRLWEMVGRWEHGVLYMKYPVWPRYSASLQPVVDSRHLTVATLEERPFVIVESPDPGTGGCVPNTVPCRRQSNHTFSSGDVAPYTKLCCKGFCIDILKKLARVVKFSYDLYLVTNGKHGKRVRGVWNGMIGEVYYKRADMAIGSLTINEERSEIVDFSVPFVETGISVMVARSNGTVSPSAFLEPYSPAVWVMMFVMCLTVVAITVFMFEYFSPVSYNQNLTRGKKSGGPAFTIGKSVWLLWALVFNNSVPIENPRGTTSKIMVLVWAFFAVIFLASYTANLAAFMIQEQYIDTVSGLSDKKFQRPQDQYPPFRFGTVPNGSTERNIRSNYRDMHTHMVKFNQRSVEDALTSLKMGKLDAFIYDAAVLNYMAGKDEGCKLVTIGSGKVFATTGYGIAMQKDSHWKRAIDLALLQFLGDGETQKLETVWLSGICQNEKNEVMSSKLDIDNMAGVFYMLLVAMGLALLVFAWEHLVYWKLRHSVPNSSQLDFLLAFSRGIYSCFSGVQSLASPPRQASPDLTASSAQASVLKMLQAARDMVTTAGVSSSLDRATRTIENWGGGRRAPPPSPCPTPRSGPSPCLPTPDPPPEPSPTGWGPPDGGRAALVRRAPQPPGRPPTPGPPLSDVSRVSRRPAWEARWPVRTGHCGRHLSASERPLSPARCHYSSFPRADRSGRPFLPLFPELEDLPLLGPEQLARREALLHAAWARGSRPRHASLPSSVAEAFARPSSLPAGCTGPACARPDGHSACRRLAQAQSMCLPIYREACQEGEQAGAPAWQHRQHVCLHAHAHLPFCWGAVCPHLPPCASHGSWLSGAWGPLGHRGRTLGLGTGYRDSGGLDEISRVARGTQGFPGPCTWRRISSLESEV
Sequence of Glutamate receptor ionotropic, NMDA 2A (Q12879 whole entry, one chain of several): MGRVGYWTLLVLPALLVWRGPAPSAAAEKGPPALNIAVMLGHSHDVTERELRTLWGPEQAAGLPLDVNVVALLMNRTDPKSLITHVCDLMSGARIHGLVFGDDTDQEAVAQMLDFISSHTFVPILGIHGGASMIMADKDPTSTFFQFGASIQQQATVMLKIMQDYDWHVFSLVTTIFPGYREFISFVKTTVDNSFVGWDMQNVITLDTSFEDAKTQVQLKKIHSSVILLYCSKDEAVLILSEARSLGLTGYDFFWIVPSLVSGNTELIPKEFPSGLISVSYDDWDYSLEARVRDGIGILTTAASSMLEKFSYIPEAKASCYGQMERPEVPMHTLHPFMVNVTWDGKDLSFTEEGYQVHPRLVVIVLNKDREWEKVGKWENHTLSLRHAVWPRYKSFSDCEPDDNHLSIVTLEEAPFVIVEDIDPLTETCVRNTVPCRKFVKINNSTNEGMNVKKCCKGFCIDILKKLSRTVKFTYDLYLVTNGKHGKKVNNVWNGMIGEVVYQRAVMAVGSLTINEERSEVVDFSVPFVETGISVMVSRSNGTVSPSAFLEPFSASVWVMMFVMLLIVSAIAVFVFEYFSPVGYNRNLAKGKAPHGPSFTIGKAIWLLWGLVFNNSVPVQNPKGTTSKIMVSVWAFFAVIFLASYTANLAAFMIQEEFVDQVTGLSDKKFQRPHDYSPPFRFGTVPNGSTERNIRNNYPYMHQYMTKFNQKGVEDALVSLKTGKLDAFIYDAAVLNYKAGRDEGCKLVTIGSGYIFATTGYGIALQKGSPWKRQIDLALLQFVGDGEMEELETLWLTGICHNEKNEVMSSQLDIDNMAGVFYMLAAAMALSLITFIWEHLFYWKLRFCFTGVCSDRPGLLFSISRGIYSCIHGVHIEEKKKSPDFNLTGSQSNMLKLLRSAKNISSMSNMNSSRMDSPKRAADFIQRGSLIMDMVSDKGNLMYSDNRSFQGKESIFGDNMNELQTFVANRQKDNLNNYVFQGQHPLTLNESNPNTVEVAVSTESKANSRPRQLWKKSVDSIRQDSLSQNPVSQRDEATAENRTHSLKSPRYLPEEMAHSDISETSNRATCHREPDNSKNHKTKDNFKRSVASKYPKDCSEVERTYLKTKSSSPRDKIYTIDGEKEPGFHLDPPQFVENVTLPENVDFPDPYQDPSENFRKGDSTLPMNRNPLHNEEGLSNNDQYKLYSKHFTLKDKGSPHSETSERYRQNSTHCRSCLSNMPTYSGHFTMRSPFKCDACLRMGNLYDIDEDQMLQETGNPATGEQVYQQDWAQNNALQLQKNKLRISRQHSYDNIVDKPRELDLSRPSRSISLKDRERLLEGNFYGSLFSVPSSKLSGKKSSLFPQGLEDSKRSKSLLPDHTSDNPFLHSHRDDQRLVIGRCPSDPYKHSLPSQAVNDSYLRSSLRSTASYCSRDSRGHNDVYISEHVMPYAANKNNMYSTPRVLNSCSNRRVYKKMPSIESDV

Row | SMILES | IC50 [1] | IC50 [2] | IC50 [3]
1 | c1ccc(CC2CCN(CCSc3nc[nH]n3)CC2)cc1 | > 100 µM | > 100 µM | 0.13 µM
2 | c1ccc(CC2CCN(CCSc3nc4ccccc4[nH]3)CC2)cc1 | > 100 µM |  | 0.38 µM
3 | c1ccc(CC2CCN(CCSc3ccccc3)CC2)cc1 | > 100 µM | > 100 µM | 0.93 µM
4 | c1ccc(CC2CCN(CCSc3nc4ncccc4[nH]3)CC2)cc1 | > 100 µM | > 100 µM | 0.24 µM
5 | Oc1ccc(C#CCCN2CCC(Cc3ccccc3)CC2)cc1 | > 100 µM | > 100 µM | 0.1 µM
6 | Cc1nnc(SCCN2CCC(Cc3ccccc3)CC2)s1 | > 100 µM | > 100 µM | 4.8 µM
7 | Oc1ccc(SCCN2CCC(Cc3ccccc3)CC2)cc1 | > 100 µM | 35 µM | 0.1 µM
8 | c1ccc(CC2CCN(CCCSc3ccccc3)CC2)cc1 | > 100 µM |  | 4.3 µM
9 | O=[N+]([O-])c1ccc2nc(SCCCN3CCC(Cc4ccccc4)CC3)[nH]c2c1 | > 100 µM | 61 µM | 0.91 µM
10 | c1ccc(CC2CCN(CCCSc3nc4ccccc4[nH]3)CC2)cc1 | 51 µM | 64 µM | 1 µM
11 | Nc1nnc(SCCN2CCC(Cc3ccccc3)CC2)s1 | > 100 µM | > 100 µM | 0.21 µM
12 | c1ccc(CC2CCN(CCSc3ncc[nH]3)CC2)cc1 | > 100 µM | > 100 µM | 0.07 µM
13 | O=[N+]([O-])c1ccc2[nH]c(SCCN3CCC(Cc4ccccc4)CC3)nc2c1 | > 100 µM | > 100 µM | 7.4 µM

More lines, now with the values ahead:

Row | IC50 [1] | IC50 [2] | IC50 [3] | SMILES
14 | > 100 µM | 51 µM | 0.63 µM | c1ccc(CC2CCN(CCCSc3nnc[nH]3)CC2)cc1
15 | > 100 µM | 77 µM | 0.61 µM | c1ccc(CC2CCN(CCCSc3ncc[nH]3)CC2)cc1
16 | > 100 µM | 73 µM | 0.56 µM | Nc1nnc(SCCCN2CCC(Cc3ccccc3)CC2)s1
17 | > 100 µM | > 100 µM | 1 µM | Cc1n[nH]c(SCCCN2CCC(Cc3ccccc3)CC2)n1
18 | > 100 µM | > 100 µM | 1.6 µM | c1ccc(CC2CCN(CCCSc3nc4ncccc4[nH]3)CC2)cc1
19 | > 100 µM | > 100 µM | 0.035 µM | Nc1nnc(SCCN2CCC(Cc3ccccc3)CC2)[nH]1
20 | > 100 µM | 77 µM | 0.63 µM | Nc1n[nH]c(SCCCN2CCC(Cc3ccccc3)CC2)n1
21 | > 100 µM | > 100 µM | 0.15 µM | Cc1n[nH]c(SCCN2CCC(Cc3ccccc3)CC2)n1
22 | > 100 µM | > 100 µM | 6.4 µM | Cc1nnc(SCCCN2CCC(Cc3ccccc3)CC2)s1
